Assays:
Format in all cases: cell-based
[1] = biological target: EP2 subtype of the human PGE2 receptor (Homo sapiens, UniProt P43116); experiment: cAMP antagonism test on the human EP2 receptor (HTRF cAMP detection); details: hEP2 receptor, read-out: Antagonism hEP2 IC50
Method in brief: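 Cells expressing human EP2 preincubated 20 min at RT with compound (0.8 nM–16.5 μM), then stimulated 60 min with PGE2 (3× solution 1.5 nM) in PBS-IBMX. After 20 min lysis, cAMP measured by competitive HTRF with cAMP-d2 and Eu cryptate anti-cAMP antibody (665/620 nm ratio).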

[2] = biological target: EP4 subtype of the human PGE2 receptor (Homo sapiens, UniProt P35408); experiment: cAMP antagonism test on the human EP4 receptor (HTRF cAMP detection); details: selectivity towards hEP4, IC50 measured by cAMP antagonism test
Method in brief: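 Cells expressing human EP4 preincubated 20 min at RT with compound (0.8 nM–16.5 μM), then stimulated with PGE2 (0.3 nM in 3× solution, with IBMX) 60 min at RT. After lysis, cAMP measured by HTRF competition (665/620 nm ratio); antagonism seen as rise in FRET signal.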

[3] = biological target: T1, human PGD receptor (Homo sapiens, UniProt Q13258); experiment: cAMP antagonism test on the human prostaglandin D receptor (HTRF cAMP detection); details: selectivity towards hDP, IC50 measured by cAMP antagonism test
T1 sequence (Q13258 1-359): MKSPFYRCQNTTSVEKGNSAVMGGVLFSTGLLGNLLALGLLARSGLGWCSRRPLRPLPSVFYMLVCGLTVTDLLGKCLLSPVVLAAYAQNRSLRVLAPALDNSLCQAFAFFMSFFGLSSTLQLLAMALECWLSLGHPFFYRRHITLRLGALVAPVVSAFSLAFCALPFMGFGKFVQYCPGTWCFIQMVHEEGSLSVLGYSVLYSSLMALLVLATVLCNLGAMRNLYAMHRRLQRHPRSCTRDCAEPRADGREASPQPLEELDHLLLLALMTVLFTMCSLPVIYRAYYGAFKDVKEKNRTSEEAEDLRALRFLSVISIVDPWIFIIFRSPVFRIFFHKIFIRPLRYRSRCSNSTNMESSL
Method in brief: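 Cells pre-mixed with cAMP-d2 were preincubated with compound (0.8 nM–16.5 μM) for 20 min at RT, then stimulated with 3× PGD2 solution (6 nM, in PBS-IBMX) for 30 min at RT. After lysis (20 min), HTRF read at 665/620 nm; antagonism seen as rise in FRET ratio.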

Sequence of EP2 subtype of the human PGE2 receptor (P43116 whole entry): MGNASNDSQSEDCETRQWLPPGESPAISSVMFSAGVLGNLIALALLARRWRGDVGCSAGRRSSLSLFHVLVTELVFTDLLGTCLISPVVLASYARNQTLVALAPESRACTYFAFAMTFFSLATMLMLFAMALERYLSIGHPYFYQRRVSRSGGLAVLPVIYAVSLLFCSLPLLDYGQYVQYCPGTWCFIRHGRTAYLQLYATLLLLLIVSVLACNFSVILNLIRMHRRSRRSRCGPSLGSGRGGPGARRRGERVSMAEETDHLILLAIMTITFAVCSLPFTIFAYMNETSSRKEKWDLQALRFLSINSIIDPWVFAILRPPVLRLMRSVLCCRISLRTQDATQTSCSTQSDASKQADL
Sequence of EP4 subtype of the human PGE2 receptor (P35408 whole entry): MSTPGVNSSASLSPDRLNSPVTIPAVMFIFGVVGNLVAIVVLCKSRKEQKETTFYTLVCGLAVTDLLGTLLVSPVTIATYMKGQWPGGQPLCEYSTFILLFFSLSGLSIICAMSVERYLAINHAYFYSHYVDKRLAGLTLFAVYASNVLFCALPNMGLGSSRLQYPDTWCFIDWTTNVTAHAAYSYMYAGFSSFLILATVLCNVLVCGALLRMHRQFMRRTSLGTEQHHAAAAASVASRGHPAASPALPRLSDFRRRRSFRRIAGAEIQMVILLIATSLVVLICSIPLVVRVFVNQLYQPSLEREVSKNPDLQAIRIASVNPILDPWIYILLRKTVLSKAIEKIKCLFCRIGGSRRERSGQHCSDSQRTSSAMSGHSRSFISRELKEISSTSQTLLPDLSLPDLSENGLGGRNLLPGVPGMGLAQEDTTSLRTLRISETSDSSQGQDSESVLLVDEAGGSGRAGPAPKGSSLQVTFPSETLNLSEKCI

| SMILES | IC50 [1] | Selectivity hEP2/hEP4 [2] | Selectivity hEP2/hDP [3] |
| --- | --- | --- | --- |
| COCCNC(=O)c1ccc2nn(CC3CCN(C(=O)c4ccc(-c5ccc(C(C)(C)O)cc5)cc4)CC3)cc2c1C [Example 388, 2-[(1-{[4′-(1-hydroxy-1-methylethyl)biphenyl-4-yl]carbonyl}piperidin-4-yl)-methyl]-N-(2-methoxyethyl)-4-methyl-2H-indazol-5-carboxamide] | 20.5 nM | xxx (xxx > 100) | xxx (xxx > 100) |
| Cc1c(C(=O)NCC(F)(F)F)ccc2nn(CC3CN(C(=O)c4ccc(OC(F)(F)F)cc4)C3)cc12 [Example 130, 4-methyl-N-(2,2,2-trifluoroethyl)-2-({1-[4-(trifluoromethoxy)benzoyl]azetidin-3-yl}methyl)-2H-indazol-5-carboxamide] | 241 nM | xx (xx: 10-100) | xx (xx: 10-100) |
| Cc1c(C(=O)NCC(F)(F)F)ccc2nn(CC3CCN(C(=O)c4cn(C)c5ccccc45)CC3)cc12 [Example 289, 4-methyl-2-({1-[(1-methyl-1H-indol-3-yl)carbonyl]piperidin-4-yl}methyl)-N-(2,2,2-trifluoroethyl)-2H-indazol-5-carboxamide] | 51.6 nM | xxx (xxx > 100) | xxx (xxx > 100) |
| Cc1cc2nn(CC3CCN(C(=O)c4ccc(C(F)(F)F)cc4F)CC3)cc2cc1C(=O)NCCN1CCOCC1 [Example 80, 2-({1-[2-fluoro-4-(trifluoromethyl)-benzoyl]piperidin-4-yl}-methyl)-6-methyl-N-(2-morpholinoethyl)-2H-indazol-5-carboxamide] | 85.9 nM | xxx (xxx > 100) | xxx (xxx > 100) |
| Cc1c(C(=O)NCC#N)ccc2nn(CC3CCN(C(=O)c4ccc(Oc5ccc(C(F)(F)F)cc5)cc4)CC3)cc12 [Example 247, N-(cyanomethyl)-4-methyl-2-[(1-{4-[4-(trifluoromethyl)phenoxy]benzoyl}piperidin-4-yl)methyl]-2H-indazol-5-carboxamide] | 12.6 nM | xxx (xxx > 100) | xxx (xxx > 100) |
| Cc1c(C(=O)NCC(C)OCC2CC2)ccc2nn(CC3CCN(C(=O)c4ccc(C(F)(F)F)cc4)CC3)cc12 (racemic) [Example 104, (+/−)-N-[2-(cyclo-propylmethoxy)-propyl]-4-methyl-2-({1-[4-(trifluoro-mcthyl)benzoyl]-piperidin-4-yl}-methyl)-2H-indazol-5-carboxamide] | 513 nM | xx (xx: 10-100) | xx (xx: 10-100) |
| Cc1c(C(=O)NCCOCC(F)(F)F)ccc2nn(CC3CCN(C(=O)c4ccc(Cl)cc4)CC3)cc12 [Example 90, 2-{[1-(4-chlorobenzoyl)piperidin-4-yl]methyl}-4-methyl-N-[2-(2,2,2-trifluoro-ethoxy)ethyl]-2H-indazol-5-carboxamide] | 14.8 nM | xxx (xxx > 100) | xxx (xxx > 100) |
| COCCNC(=O)c1ccc2nn(CC3CN(C(=O)c4ccc(C(F)(F)F)c(F)c4)C3)cc2c1C [Example 122, 2-({1-[3-fluoro-4-(trifluoromethyl)benzoyl]azetidin-3-yl}methyl)-N-(2-methoxy-ethyl)-4-methyl-2H-indazol-5-carboxamide] | 28.6 nM | xxx (xxx > 100) | xxx (xxx > 100) |
| Cc1c(C(=O)NCCSC(F)(F)F)ccc2nn(C[C@@H]3CCN(C(=O)c4ccc(Cl)cc4)C3)cc12 [Example 220, 2-{[(R)-1-(4-chlorobenzoyl)pyrrolidin-3-yl]methyl}-4-methyl-N-{2-[(trifluoromethyl)sulphanyl]ethyl}-2H-indazol-5-carboxamide] | 147 nM | xxx (xxx > 100) | xxx (xxx > 100) |
| Cc1c(C(=O)NCCOC(C)C)ccc2nn(CC3CCN(C(=O)c4ccc(Cl)cc4)CC3)cc12 [Example 96, 2-{[1-(4-chlorobenzoyl)piperidin-4-yl]methyl}-N-(2-isopropoxyethyl)-4-methyl-2H-indazol-5-carboxamide] | 9.42 nM | xxx (xxx > 100) | xxx (xxx > 100) |
| Cc1cc2nn(CC3CCN(C(=O)c4cccc(OC(F)(F)F)c4)CC3)cc2cc1C(=O)NCCN1CCOCC1 [Example 76, 6-methyl-N-(2-morpholinoethyl)-2-({1-[3-(trifluorometh-oxy)benzoyl]piperidin-4-yl}methyl)-2H-indazol-5-carboxamide] | 179 nM | xx (xx: 10-100) | xx (xx: 10-100) |
| COCCNC(=O)c1ccc2nn(CC3CCN(C(=O)c4cn(C)c5ccccc45)CC3)cc2c1C [Example 331, N-(2-methoxyethyl)-4-methyl-2-({1-[(1-methyl-1H-indol-3-yl)carbonyl]-piperidin-4-yl}methyl)-2H-indazol-5-carboxamide] | 9.47 nM | xxx (xxx > 100) | xxx (xxx > 100) |
| Cc1c(C(=O)NCC(F)(F)F)ccc2nn(CC3CCN(C(=O)c4ccc(-c5ccc(Cl)cn5)cc4)CC3)cc12 [Example 317, 2-({1-[4-(5-chloropyridin-2-yl)benzoyl]piperidin-4-yl}methyl)-4-methyl-N-(2,2,2-trifluoroethyl)-2H-indazol-5-carboxamide] | 181 nM | xx (xx: 10-100) | xx (xx: 10-100) |
| COCCNC(=O)c1ccc2nn(CC3CCN(C(=O)c4ccc(-c5cnc(C)nc5)cc4)CC3)cc2c1C [Example 379, N-(2-methoxyethyl)-4-methyl-2-({1-[4-(2-methylpyrimidin-5-yl)benzoyl]-piperidin-4-yl}methyl)-2H-indazol-5-carboxamide] | 62.6 nM | xxx (xxx > 100) | xxx (xxx > 100) |

Molecules with a lower IC50 [1], results first:

| IC50 [1] | Selectivity hEP2/hEP4 [2] | Selectivity hEP2/hDP [3] | SMILES |
| --- | --- | --- | --- |
| 5.84 nM | xxx (xxx > 100) | xxx (xxx > 100) | COCCNC(=O)c1ccc2nn(CC3CCN(C(=O)c4ccc(-c5ccc(Cl)cc5OC)cc4)CC3)cc2c1C [Example 381, 2-({1-[(4′-chloro-2′-methoxybiphenyl-4-yl)carbonyl]piperidin-4-yl}methyl)-N-(2-methoxyethyl)-4-methyl-2H-indazol-5-carboxamide] |
| 4.74 nM | xxx (xxx > 100) | xxx (xxx > 100) | COCCNC(=O)c1ccc2nn(CC3CCN(C(=O)c4ccc(Br)cc4)CC3)cc2c1C [Example 54, 2-{[1-(4-bromo-benzoyl)piperidin-4-yl]methyl}-N-(2-methoxyethyl)-4-methyl-2H-indazol-5-carboxamide] |
| 5.35 nM | xxx (xxx > 100) | xxx (xxx > 100) | COCCNC(=O)c1ccc2nn(CC3CCN(C(=O)c4ccc(-c5ccc(F)cc5OC)cc4)CC3)cc2c1C [Example 380, 2-({1-[(4′-fluoro-2′-methoxybiphenyl-4-yl)carbonyl]piperidin-4-yl}methyl)-N-(2-methoxyethyl)-4-methyl-2H-indazol-5-carboxamide] |
| 5.06 nM | xxx (xxx > 100) | xxx (xxx > 100) | COCCNC(=O)c1cc2cn(CC3CN(C(=O)c4ccc(Oc5ccc(C(F)(F)F)cc5)cc4)C3)nc2cc1C [Example 202, N-(2-methoxyethyl)-6-methyl-2-[(1-{4-[4-(trifluoromethyl)phenoxy]benzoyl}-azetidin-3-yl)methyl]-2H-indazol-5-carboxamide] |
| 8.14 nM | xxx (xxx > 100) | xxx (xxx > 100) | COCCNC(=O)c1ccc2nn(CC3CCN(C(=O)c4ccc(S(F)(F)(F)(F)F)cc4)CC3)cc2c1C [Example 11, N-(2-methoxyethyl)-4-methyl-2-({1-[4-(pentafluoro-λ^6-sulphanyl)benzoyl]piperidin-4-yl}methyl)-2H-indazol-5-carboxamide] |
| 2.87 nM | xxx (xxx > 100) | xxx (xxx > 100) | COCCNC(=O)c1ccc2nn(CC3CN(C(=O)c4ccc(Oc5ccc(Cl)cc5)cc4)C3)cc2c1C [Example 166, 2-({1-[4-(4-chlorophenoxy)benzoyl]azetidin-3-yl}methyl)-N-(2-methoxyethyl)-4-methyl-2H-indazol-5-carboxamide] |
| 6.99 nM | xxx (xxx > 100) | xxx (xxx > 100) | COCCNC(=O)c1ccc2nn(CC3CCN(C(=O)c4ccc(Oc5ccc(F)c(F)c5)cc4)CC3)cc2c1C [Example 359, 2-({1-[4-(3,4-difluorophenoxy)benzoyl]piperidin-4-yl}methyl)-N-(2-methoxy-ethyl)-4-methyl-2H-indazol-5-carboxamide] |

Reference: US9062041B2 (Bayer Intellectual Property GmbH, priority 2011, dated 2015)
